This is an account of results in patent EP0998946A1, “Non-porphyrin compound for use as a diagnosticum and/or pharmaceutical” (K.U. LEUVEN RESEARCH & DEVELOPMENT, priority 1998, dated 2000).

The subject of series [1] is Reperfused hepatic infarction in rats. The experiment in a line: MRI contrast enhancement, reperfused hepatic infarction in rats. Format: in vivo, Wistar rats.
Series [2] has as its system Acute myocardial infarction. As to the kind of experiment: MRI contrast enhancement, acute reperfused myocardial infarction in dogs. The format is in vivo, Mongrel dogs. The note with it: dog.
Series [3] has as its system Acute myocardial infarction. As to the kind of experiment: MRI contrast enhancement, reperfused myocardial infarction in rabbits. The note with it: rabbit heart, 18 hours after IV injection at 0.05 mmol/kg, T1-w spin echo. Format: in vivo, New Zealand rabbits.
The test system of series [4] is mice. As to the kind of experiment: Acute lethal toxicity (LD50) in mice.
For series [5], the system named is rats. The experiment in a line: Acute lethal toxicity (LD50) in rats. The note with it: 5.0 mmol/kg.
In series [6] the test system is reperfused hepatic infarction. As to the kind of experiment: Scintigraphic imaging and infarction to normal tissue radioactivity ratio. Format: in vivo, rat. To be noted: 74 MBq. How it is done: Two effective and reproducible animal models have been induced and used in the in vivo assessment of newly synthesized agents. • 1. Reperfused hepatic infarction in rats: adult Wistar rats weighing about 350 grams were anesthetized with intraperitoneal injection of pentobarbital (Nembutal®, 40 mg/kg, Sanofi Sante Animale, B-1130 Brussels, Belgium). Under laparotomy, reperfused hepatic infarction was induced by temporarily clamping the hilum of the right liver lobes for 3 hours. The abdominal cavity was then closed and the rats were allowed to recover from surgery. • 2. Acute myocardial infarction in rabbits and dogs: under general anesthesia with Nembutal® at 6 mg/kg/h and intubated ventilation, adult New Zealand rabbits of 3 kg or Mongrel dogs of 20 kg underwent open-chest surgery through the seventh intercostal space. The left anterior descending (LAD) or circumflex (Cx) branch of the coronary artery was encircled and occluded with a snare-occluder for 150 minutes and reopened by losing the occluder to induce irreversible reperfused AMI. The thoracic cavity was closed by layers with the free air expelled.
[…] This animal was prepared as described above. Scintigraphic images were acquired during 1 to 5 minutes at regular time intervals up to 24 h after injection, using a Triad-gamma camera equipped with an ultra-high resolution parallel collimator.
After sacrificing the animal, organs were isolated and necrotic and viable liver parts were separated and weighed. Their 99m Tc radioactivity was measured using a sodium iodine scintillation detector coupled to a multichannel analyzer. The activity per gram tissue was a factor of 3.2 higher in necrotic liver tissue as compared to normal liver tissue.
This imaging result has been confirmed by radioactivity counting with a factor of more than 3 between infarcted and normal liver tissues.

For series [7], the system named is necrotic liver. As to the kind of experiment: Biodistribution: tissue Gd content by ICP-AES in rats. To be noted: Gadophrin-2 comparison.
Setting [8] is: rat, 0.05 mmol/kg, T1 weighted spin echo.

In the case of `CNC[C@H](O)[C@@H](O)[C@H](O)[C@H](O)CO.CNC[C@H](O)[C@@H](O)[C@H](O)[C@H](O)CO.O=C([O-])CN(CCN(CC(=O)[O-])CC(=O)O)CCN(CC(=O)[O-])CC(=O)O.[Gd+3]` [Gd-DTPA, reference compound], in series [1] (T1 weighted MRI, hepatic and myocardial infarcts, iv 0.05 mmol/kg (Gd-DTPA 0.1 mmol/kg), degree and duration equal to that with Gadophrin-2), the “contrast enhancement of the lesions” value is reported as “only enhances nonspecifically the lesions at the early phase (<2h)”.
In the case of “N,N'-Bis(diethylenetriamino penta-acetato)-4,4'-methylene bis(3-hydroxy-2-naphthalene carboxylic hydrazide), Gd-complex, sodium salt [ECIII-60]”, in series [1] (rat, 0.05 mmol/kg, 60 minutes after injection, T1 weighted spin echo), the “signal intensity of infarcted liver versus normal liver” value is given as “surpassed that of normal liver”. Also, the “time at which the necrosis-to-normal contrast reached maximum” value in series [1] (setting [8]) was determined as 24 h. In series [1] (setting [8]), the “time until the enhancement of the necrosis became homogeneous” value is “within a couple of hours”. For the same compound, the “enhancement at the infarcted papillary muscle” value in series [2] (eighteen hours after contrast, 0.05 mmol/kg IV) is reported as “extremely strong enhancement”. Moreover, the “signals of blood pool and papillary muscle” value in series [2] (ten minutes after IV injection at 0.05 mmol/kg, T1-w turbo-FLASH) is listed as “strongly enhanced”. The “enhancement of the transmural infarct” value in series [3] was “persistently enhanced”. For the same compound, the “No. Deaths/No. animals” value is 0/4 in series [4] (2.15 mmol/kg), 3/3 in series [4] (5.0 mmol/kg) and 4/4 in series [5].
As for “N,N'-Bis(diethylenetriamino penta-acetato)-4,4'-methylene bis(3-hydroxy-2-naphthalene carboxylic hydrazide), technetium-99m complex, sodium salt [Example 3]”, in series [6] (rat with reperfused right liver lobe infarction, 24 hours after administration), the nuclear scintigraphy finding entry is on record as “hot spot caused by accumulation tracer in the necrotic liver lobe only”. In addition, the “activity per gram tissue, factor necrotic liver tissue versus normal liver tissue” value in series [6] (rat, 99mTc radioactivity of isolated liver parts after sacrifice) is 3.2. Besides, the “scintigraphic visualization of the infarcted region” value in series [6] (rat, images acquired 20 h after injection) is reported as “Clear visualization of the infarcted region”. The “radioactivity counting, factor between infarcted and normal liver tissues” value in series [6] (rat, 24 hours after administration) was “more than 3”.
As for gadolinium mesoporphyrin [Gadophrin-2], the “Gadolinium content, proportion necrotic liver to normal liver” value in series [7] was “one-to-one”.
